According to patent publication US11753411B2, “Substituted pyrazolo[1,5-a]pyrimidines as TYK2 pseudokinase ligands” (Ventyx Biosciences, Inc., priority 2019, dated 2023):
pIC50: −log10 of the molar value.

Test system: IFN-a/Jak1 Tyk2
Assay: Co-stimulation assay in lysed whole blood: IFNa (JAK1/TYK2) stimulated STAT1 phosphorylation
Type: cell-based
Details: Homo sapiens, 20 min, 100 ng/mL IFNa (with 10 ng/mL GM-CSF), pSTAT by flow cytometry
Procedure: Example 12: Co-Stimulation Assay in Lysed Whole Blood; JAK2: GM-CSF Stimulated STAT5 Phosphorylation and JAK1/TYK2 Stimulated STAT1 Phosphorylation Assay
Human Blood Lysis Using Abcam's RBC Lysis Buffer
Dilute RBC lysis buffer to 1× in distilled water. Add 2 mL blood to 38 mL of 1×RBC-lysis buffer. Incubate for 15 mins at RT, in dark. Spin at 300 g, 5 mins, to collect the pellet. Re-lyse if necessary. Re-suspend pellet in 5 mL of cRPMI.
Compound and Cytokine Treatment
Aliquot 80 μL of lysed human blood in to wells of 96 deep-well plate. Add 10 μl of (10× conc.) of different concentrations of compounds to all wells except controls (unstained and unstimulated) and mix it with the help of 100 uL multichannel. Add 10 uL of RPMI media in controls. For dilution of compounds and dilution range please refer Appendix. Incubate on water bath or CO2 incubator for 1 hour at 37° C. Add 10 μl of (10× conc.) of cytokine mix (GM-CSF and IFNa) (final conc.10 ng/mL of GM-CSF and 100 ng/mL of IFNa) to each well except unstimulated and unstained controls and incubate further for 20 minutes on water bath at 37° C.
Add 900 μL of prewarmed 1× Fix/Lyse solution (Appendix) and mix it properly using 1000 μl multichannel, incubate further on water bath at 37° C. for 10 minutes (which includes time of addition). Centrifuge at 800×g for 5 minutes at 40° C.; remove 900 uL of supernatant and add 900 μL of 1×PBS. Centrifuge at 800×g for 5 minutes at 40° C., remove 900 μL of supernatant. Wash one more time with 900 μL of PBS (optional) and resuspend pellets in 100 uL of PBS.
Disrupt the pellet by gentle tapping and resuspend in 1000 μL of BD Phosflow Perm Buffer III and incubate plate on ice for 30 minutes. Centrifuge plate at 800×g for 5 minutes at 40° C. Wash two more times with 1000 μL of BD Pharmingen Stain Buffer.
Disrupt the pellet by gentle tapping. Resuspend pellets in 100 uL of Stain Buffer and add 5 μL of pSTAT5_AF488 Ab and 5 uL of pSTAT_PE in all wells except unstained control and mix properly using 200 μl multichannel, incubate overnight at […]. Add 900 μL of wash buffer and centrifuge at 1800 rpm for 3 minutes at 40° C. Wash one more time with 1000 μL of BD Pharmingen Stain Buffer. Finally resuspend the pellet in 300 uL of BD Pharmingen Stain Buffer. Transfer the cells to 96-well v-bottom plate and acquire the cells in Beckman Coulter CytExpert. Acquiring cells in Flow Cytometer: Keep the threshold value to 250 and cell concentration should not exceed 100-500 cells/μL. Acquire at least 5,000-10,000 cells.
RPMI 1640 Complete Medium: RPMI 1640 media+10% FBS.
Cytokine dilution: 1) GM-CSF Stock at 100 ug/mL. Prepare an intermediate dilution of 1 ug/mL by adding 2 uL of stock into 198 uL of cRPMI. Further dilute to 100 ng/mL by adding 100 uL of the intermediate stock to 900 uL of cRPMI. 2) IFNa Stock at 200 ug/mL. Dilute IFNa stock 1:200 by adding 5 uL of stock into the 1000 uL of 100 ng/mL GM-CSF working stock as above to give a combined working stock of 1000 ng/mL of IFNa and 100 ng/mL GM-CSF (10×). Keep it on ice until used.
Lyse/Fix buffer preparation: Dilute 5× Lyse/Fix buffer to 1× using MQ water and keep at 37° C. until used.
BD Phosflow perm buffer III: Keep on ice/fridge.

SMILES | pIC50
CNc1cc(Nc2cccc3c2OCCO3)nc2c(NC(=O)N[C@H](C)C#N)cnn12 [Compound 122, (R)-1-(1-cyanoethyl)-3-(5-((2,3-dihydrobenzo[b][1,4]dioxin-5-yl)amino)-7-(methylamino)pyrazolo[1,5-a]pyrimidin-3-yl)urea] | > 6.00
CNc1cc(Nc2cc(F)cc3c2OCCO3)nc2c(NC(=O)NCC3(C#N)CC3)cnn12 [Compound 180, 1-((1-cyanocyclopropyl)methyl)-3-(5-((7-fluoro-2,3-dihydrobenzo[b][1,4]dioxin-5-yl)amino)-7-(methylamino)pyrazolo[1,5-a]pyrimidin-3-yl)urea] | ≤ 5.00
CNC(=O)Nc1cnn2c(NC)cc(Nc3ccccc3S(C)(=O)=O)nc12 [Compound 156, 1-methyl-3-(7-(methylamino)-5-((2-(methylsulfonyl)phenyl)amino)py-razolo[1,5-a]pyrimidin-3-yl)urea] | ≤ 5.00
CNc1cc(Nc2cccc3c2OCCO3)nc2c(NC(=O)NC3CC(F)C3)cnn12 (centres unmarked) [Compound 35, 1-(5-((2,3-dihydrobenzo[b][1,4]dioxin-5-yl)amino)-7-(methylamino)pyrazolo[1,5-a]pyrimidin-3-yl)-3-(3-fluorocyclobutyl)urea] | > 6.00
CNC(=O)Nc1cnn2c(NC)cc(Nc3cccc4c3OC(C)(C)O4)nc12 [Compound 116, 1-(5-((2,2-dimethylbenzo[d][1,3]dioxol-4-yl)amino)-7-(methylamino)pyrazolo[1,5-a]pyrimidin-3-yl)-3-methylurea] | 5.00 to 6.00
[2H]C([2H])([2H])NC(=O)Nc1cnn2c(NC)cc(Nc3cccc4c3OCCO4)nc12 [Compound 144, 1-(5-((2,3-dihydrobenzo[b][1,4]dioxin-5-yl)amino)-7-(methylamino)pyrazolo[1,5-a]pyrimidin-3-yl)-3-(methyl-d3)urea] | > 6.00
CNC(=O)Nc1cnn2c(NC)cc(N(C)c3ccccc3)nc12 [Compound 159, 1-methyl-3-(5-(methyl(phenyl)amino)-7-(methylamino)pyrazolo[1,5-a]pyrimidin-3-yl)urea] | ≤ 5.00
CNC(=O)Nc1cnn2c(NC)cc(Nc3c(C)cccc3OC)nc12 [Compound 66, 1-(5-((2-methoxy-6-methylphenyl)amino)-7-(methylamino)pyrazolo[1,5-a]pyrimidin-3-yl)-3-methylurea] | 5.00 to 6.00
CNC(=O)Nc1cnn2c(NC)cc(Nc3ccccc3OC(F)(F)F)nc12 [Compound 168, 1-methyl-3-(7-(methylamino)-5-((2-(trifluoromethoxy)phenyl)amino)pyrazolo[1,5-a]pyrimidin-3-yl)urea] | 5.00 to 6.00
CNc1cc(Nc2cccc3occc23)nc2c(NC(=O)NCC#N)cnn12 [Compound 131, 1-(5-(benzofuran-4-ylamino)-7-(methylamino)pyrazolo[1,5-a]pyrimidin-3-yl)-3-(cyanomethyl)urea] | > 6.00
CNC(=O)Nc1cnn2c(NC)cc(Nc3ccccc3OC)nc12 [Compound 149, 1-(5-((2-methoxyphenyl)amino)-7-(methylamino)pyrazolo[1,5-a]pyrimidin-3-yl)-3-methylurea] | > 6.00
CNc1cc(Nc2cc(F)cc3c2OCCO3)nc2c(NC(=O)NCC(F)F)cnn12 [Compound 133, 1-(2,2-difluoroethyl)-3-(5-((7-fluoro-2,3-dihydrobenzo[b][1,4]dioxin-5-yl)amino)-7-(methylamino)pyrazolo[1,5-a]pyrimidin-3-yl)urea] | 5.00 to 6.00
CNc1cc(Nc2cc(OC)cc3c2OCCO3)nc2c(NC(=O)NC3CC3)cnn12 [Compound 84, 1-cyclopropyl-3-(5-((7-methoxy-2,3-dihydrobenzo[b][1,4]dioxin-5-yl)amino)-7-(methylamino)pyrazolo[1,5-a]pyrimidin-3-yl)urea] | 5.00 to 6.00
CNc1cc(Nc2cccc3c2OCCO3)nc2c(NC(=O)NCC(F)F)cnn12 [Compound 134, 1-(2,2-difluoroethyl)-3-(5-((2,3-dihydrobenzo[b][1,4]dioxin-5-yl)amino)-7-(methylamino)pyrazolo[1,5-a]pyrimidin-3-yl)urea] | 5.00 to 6.00
